From patent US20080153888A1, “ALPHA-2-DELTA LIGAND/NSAID THERAPEUTIC TREATMENT OF LOWER URINARY TRACT DISORDERS” (Recordati Ireland Limited, priority 2006, published 2008)

Test system: anesthetized rats with acetic acid bladder infusion (animal model of overactive bladder)
Assay: Cystometry in anesthetized rats with acetic acid bladder infusion;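 note: Single-filling cystometrograms via bladder-dome catheter, basal values taken after 60 min saline infusion, BVC as mL infused until micturition, MP as peak intravesical pressure (mm Hg)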
Assay type: in vivo, rat
Conditions: for % Bladder Volume Capacity (vs basal) ± S.E. / ED60 (CL 95%) of recovery of Bladder Volume Capacity to basal value: single drug; for % Bladder Volume Capacity (vs basal) ± S.E.: cumulative administration; for ED60 (CL 95%) of recovery of Bladder Volume Capacity to basal value: i.v., cumulative dose-response
Method: Female rats (225-250 g body weight) were anesthetized with urethane (1.25 g/kg s.c.) and a catheter (PE-50, 0.58 mm I.D.×0.96 mm O.D.) was inserted into the jugular vein for intravenous drug administration. A midline lower abdominal incision was made and a second PE-50 catheter was inserted into the bladder dome for bladder filling and pressure recording, and the incision was sutured.
Dosages were administered by injection in a volume of 1 ml per kg body weight.
a) Saline was continuously infused at a rate of 0.055 ml/min by mean of a peristaltic pump via the bladder-filling catheter for 60 minutes to obtain a baseline of bladder activity. Then the infusion pump was stopped and the bladder was emptied of residual fluid by capillarity via the infusion catheter. After this procedure, a single filling cystometrogram was performed in order to determine the two urodynamic parameters: bladder volume capacity (BVC) and micturition pressure (MP) (BVC and MP BASAL VALUES).
After 30 minutes of acetic acid infusion, 3 vehicle injections were made at 20 minute intervals. Then the infusion pump was stopped, the bladder was emptied and a single filling cystometrogram was recorded as reported before (BVC and MP VALUES AFTER IRRITATION).
This procedure was repeated for three times in order to follow a cumulative dose-response protocol.
BVC is defined as the volume (mL) of fluid (saline or dilute acetic acid) infused in the bladder necessary to induce detrusor contractions followed by micturition. MP is defined as the maximal intravesical pressure (mm Hg) determined by the contraction of the detrusor during micturition.
Changes in bladder capacity for each animal were expressed as “% bladder volume capacity vs. basal (saline infusion)” and an increase in this index was used as measure of efficacy (recovery from irritation to basal value).

Compound	% Bladder Volume Capacity (vs basal) ± S.E. (dose 0.3 mg/kg i.v.) [%]	% Bladder Volume Capacity (vs basal) ± S.E. (dose 1.0 mg/kg i.v.) [%]	% Bladder Volume Capacity (vs basal) ± S.E. (dose 3 mg/kg i.v.) [%]	% Bladder Volume Capacity (vs basal) ± S.E. (dose 10 mg/kg i.v.) [%]	ED60 (CL 95%) of recovery of Bladder Volume Capacity to basal value	% Bladder Volume Capacity (vs basal) ± S.E. (dose 0.1 mg/kg i.v.) [%]	% Bladder Volume Capacity (vs basal) ± S.E. (dose 3 mg/kg i.v., 3 mg/kg) [%]	% Bladder Volume Capacity (vs basal) ± S.E. (dose 30 mg/kg i.v.) [%]	micturition pressure (MP) (after increase of MP induced by acetic acid infusion, data not shown)	% Bladder Volume Capacity (vs basal) ± S.E. (dose 100 mg/kg i.v.) [%]	% Bladder Volume Capacity (vs basal) ± S.E. (dose 60 mg/kg i.v.) [%]	% Bladder Volume Capacity (vs basal) ± S.E. (dose 300 mg/kg i.v.) [%]
CS(=O)(=O)Nc1ccc([N+](=O)[O-])cc1Oc1ccccc1 [Nimesulide]	38 ± 10	36 ± 12	37 ± 7	47 ± 15	>>10	–	–	–	–	–	–	–
CC(C(=O)O)c1ccc(-c2ccccc2)c(F)c1 (stereo not shown) [Flurbiprofen, flurbiprofen]	42 ± 6	49 ± 9	–	73 ± 12	2.34 (nc-4.77)	43 ± 11	62 ± 10	–	–	–	–	–
O=C(O)Cc1ccccc1Nc1c(Cl)cccc1Cl [Diclofenac, diclofenac]	41 ± 10	63 ± 13	82 ± 15	–	0.85 (0.80-0.90)	–	–	–	–	–	–	–
CC1=C(CC(=O)O)c2cc(F)ccc2/C1=C\c1ccc([S+](C)[O-])cc1 (stereo not shown) [Sulindac, sulindac]	27 ± 5	39 ± 11	34 ± 8	38 ± 4	>30	–	–	54 ± 8	–	–	–	–
CC(C)C[C@H](CN)CC(=O)O [Pregabalin, pregabalin]	–	–	–	31 ± 6	300.5 (n.c.-n.c.)	–	–	35 ± 6	recovered to basal values	52 ± 8	–	–
NCC1(CC(=O)O)CCCCC1 [Gabapentin]	–	–	–	–	112 (75-149)	–	–	27 ± 4	–	55 ± 9	51 ± 15	82 ± 12
